Measurements reported in patent US20090176817A1, “Method of Treatment of Diarrhea-Predominant Irritable Bowel Syndrome in a Subject” (priority 2005, published 2009).

System: diarrhea-predominant IBS subjects
Experiment: Study S241.3.011: weekly diary questions on adequate relief
Format: in vivo, human
Conditions: for Number of months a subject was a responder: Zero months (IBS symptoms) / Overall responder rate, adequate relief of IBS symptoms / Overall responder rate, adequate relief of abdominal pain/discomfort / Overall responder rate, adequate relief of abnormal bowel habits / Number of months a subject was a responder: One month (Abdominal pain/discomfort) / Number of months a subject was a responder: One month (Abnormal bowel habits) / Number of months a subject was a responder: One month (IBS symptoms) / Number of months a subject was a responder: Three months (Abdominal pain/discomfort) / Number of months a subject was a responder: Three months (Abnormal bowel habits) / Number of months a subject was a responder: Three months (IBS symptoms) / Number of months a subject was a responder: Two months (Abdominal pain/discomfort) / Number of months a subject was a responder: Two months (Abnormal bowel habits) / Number of months a subject was a responder: Two months (IBS symptoms) / Number of months a subject was a responder: Zero months (Abdominal pain/discomfort) / Number of months a subject was a responder: Zero months (Abnormal bowel habits): three-month treatment period; for Number of months a subject was a responder: Zero months (IBS symptoms) / Number of months a subject was a responder: One month (Abdominal pain/discomfort) / Number of months a subject was a responder: One month (Abnormal bowel habits) / Number of months a subject was a responder: One month (IBS symptoms) / Number of months a subject was a responder: Three months (Abdominal pain/discomfort) / Number of months a subject was a responder: Three months (Abnormal bowel habits) / Number of months a subject was a responder: Three months (IBS symptoms) / Number of months a subject was a responder: Two months (Abdominal pain/discomfort) / Number of months a subject was a responder: Two months (Abnormal bowel habits) / Number of months a subject was a responder: Two months (IBS symptoms) / Number of months a subject was a responder: Zero months (Abdominal pain/discomfort) / Number of months a subject was a responder: Zero months (Abnormal bowel habits): monthly LOCF; for Overall responder rate, adequate relief of IBS symptoms / Overall responder rate, adequate relief of abdominal pain/discomfort / Overall responder rate, adequate relief of abnormal bowel habits: observed case
Protocol: Study S241.3.011 was a Phase III, double-blind, placebo-controlled, randomized, multinational study to investigate the safety and efficacy of 2 mg TID of cilansetron for a period of 12 weeks followed by a rerandomized, placebo-controlled four-week treatment period, in diarrhea-predominant IBS subjects. The study was conducted in six countries including the US. A total of 2115 subjects consented to participate, and 770 subjects were randomized. A total of 746 subjects were analyzed for efficacy and 755 subjects were analyzed for safety. Diagnosis and main criteria for inclusion were IBS subjects satisfying the Rome I criteria (1992); the diarrhea predominant sub-population of the Rome II criteria; and a minimum abdominal pain/discomfort, stool frequency and consistency determined during the run-in period. Subjects were treated with cilansetron 2 mg tablets given orally TID or matching placebo tablets given orally TID for 12 weeks followed by a rerandomized, placebo-controlled four-week treatment period.
The primary efficacy parameter was the number of months that a subject was a responder for IBS symptoms (abdominal pain, abdominal discomfort, abnormal bowel habits) over the 12-week treatment period. A responder for a month (monthly responder) was defined as a subject who answered the weekly question with “yes” at least twice for that month. The two main secondary efficacy parameters were the monthly responder rates based on the “adequate relief” questions regarding abdominal pain/discomfort and abnormal bowel habits during the 12-week treatment period. The overall response rate and responder rate for the weekly diary questions on adequate relief at each month and all months, the adequate relief rate, the number of subjects with adequate relief by week, daily diary questions, IBS-QOL scores, and the interruption of activities were also assessed. Safety was evaluated by physical examination, ECG, vital signs, laboratory evaluations, concomitant medications, and AEs.
Subjects who were initially randomized to the cilansetron 2 mg TID group and rerandomized to placebo, will be referred to as the C/P treatment group; subjects initially randomized to the placebo group and rerandomized to placebo will be referred to as the P/P treatment group; the P/C and C/C treatment group nomenclature follow the same principle. Of the 591 subjects who completed the three-month treatment period, 576 subjects were rerandomized and thus divided into the following treatment groups: 150 subjects in the C/C treatment group, 140 subjects in the C/P treatment group, 136 subjects in the P/C treatment group, and 150 subjects in the P/P treatment group. Of the 576 subjects rerandomized, a higher percentage of subjects in the C/C treatment group (99%) completed the study compared with the C/P (95%), P/C (93%), and the P/P (95%) treatment groups.
Studies S24 1.3.OO6, S24 1.3.0 1 1, and S24 1.3.009 used the following efficacy measurements: • The subjects answered the following three questions with “yes” or “no” using a phone diary at the end of each week: • a) During the last week, did you experience adequate relief of your IBS symptoms, such as abdominal pain, abdominal discomfort, abnormal bowel habits? • b) During the last week, did you experience adequate relief of your abdominal pain and/or discomfort? • c) During the last week, did you experience adequate relief of your abnormal bowel habits? • The subjects rated the following symptoms using the phone diary at the end of each day: • abdominal pain/discomfort (five-point scale); • stool consistency (seven-point Bristol Stool Scale); • stool frequency (number of bowel movements each day); • urgency (five-point scale); • straining (yes or no); • feeling of incomplete defecation (yes or no); • bloating or feeling of abdominal distension (five-point scale). • In Studies S241 A006 and S241.3.009, subjects completed the IBS-QOL Survey at Baseline (Day 1) and at the end of treatment. […]

[1] = Baseline BMI: <30 kg/m^2, ITT, 2 mg TID
[2] = Baseline BMI: ≧30 kg/m^2, ITT, 2 mg TID
[3] = Baseline severity of IBS: non-severe, ITT, 2 mg TID
[4] = Baseline severity of IBS: severe, ITT, 2 mg TID
[5] = Duration of IBS: >24 months to ≦48 months, 2 mg TID, monthly LOCF imputation, ITT

Cc1nccn1C[C@H]1CCc2c(c3cccc4c3n2CCC4)C1=O [Cilansetron, (R)-(−)-4,5,6,8,9,10-hexahydro-10-[(2-methyl-1H-imidazol-1-yl)methyl]-11H-pyrido-[3,2,1-jk]-carbazol-11-one]
Number of months a subject was a responder: Zero months (IBS symptoms) [1]: 73 (27) n (%) | Overall responder rate, adequate relief of IBS symptoms [1]: 148 (56) n (%) | Overall responder rate, adequate relief of abdominal pain/discomfort [1]: 158 (59) n (%) | Overall responder rate, adequate relief of abnormal bowel habits [1]: 150 (56) n (%) | Number of months a subject was a responder: One month (Abdominal pain/discomfort) [2]: 15 (14) n (%) | Number of months a subject was a responder: One month (Abnormal bowel habits) [2]: 17 (15) n (%) | Number of months a subject was a responder: One month (IBS symptoms) [2]: 16 (14) n (%) | Number of months a subject was a responder: Three months (Abdominal pain/discomfort) [2]: 46 (41) n (%) | Number of months a subject was a responder: Three months (Abnormal bowel habits) [2]: 45 (41) n (%) | Number of months a subject was a responder: Three months (IBS symptoms) [2]: 41 (37) n (%) | Number of months a subject was a responder: Two months (Abdominal pain/discomfort) [2]: 22 (20) n (%) | Number of months a subject was a responder: Two months (Abnormal bowel habits) [2]: 15 (14) n (%) | Number of months a subject was a responder: Two months (IBS symptoms) [2]: 22 (20) n (%) | Number of months a subject was a responder: Zero months (Abdominal pain/discomfort) [2]: 28 (25) n (%) | Number of months a subject was a responder: Zero months (Abnormal bowel habits) [2]: 34 (31) n (%) | Number of months a subject was a responder: Zero months (IBS symptoms) [2]: 32 (29) n (%) | Overall responder rate, adequate relief of IBS symptoms [2]: 58 (52) n (%) | Overall responder rate, adequate relief of abdominal pain/discomfort [2]: 63 (57) n (%) | Overall responder rate, adequate relief of abnormal bowel habits [2]: 53 (48) n (%) | Number of months a subject was a responder: One month (Abdominal pain/discomfort) [3]: 25 (11) n (%) | Number of months a subject was a responder: One month (Abnormal bowel habits) [3]: 26 (12) n (%) | Number of months a subject was a responder: One month (IBS symptoms) [3]: 29 (13) n (%) | Number of months a subject was a responder: Three months (Abdominal pain/discomfort) [3]: 97 (44) n (%) | Number of months a subject was a responder: Three months (Abnormal bowel habits) [3]: 88 (40) n (%) | Number of months a subject was a responder: Three months (IBS symptoms) [3]: 92 (41) n (%) | Number of months a subject was a responder: Two months (Abdominal pain/discomfort) [3]: 40 (18) n (%) | Number of months a subject was a responder: Two months (Abnormal bowel habits) [3]: 40 (18) n (%) | Number of months a subject was a responder: Two months (IBS symptoms) [3]: 39 (18) n (%) | Number of months a subject was a responder: Zero months (Abdominal pain/discomfort) [3]: 60 (27) n (%) | Number of months a subject was a responder: Zero months (Abnormal bowel habits) [3]: 68 (31) n (%) | Number of months a subject was a responder: Zero months (IBS symptoms) [3]: 62 (28) n (%) | Overall responder rate, adequate relief of IBS symptoms [3]: 124 (56) n (%) | Overall responder rate, adequate relief of abdominal pain/discomfort [3]: 131 (59) n (%) | Overall responder rate, adequate relief of abnormal bowel habits [3]: 121 (55) n (%) | Number of months a subject was a responder: One month (Abdominal pain/discomfort) [4]: 20 (13) n (%) | Number of months a subject was a responder: One month (Abnormal bowel habits) [4]: 24 (15) n (%) | Number of months a subject was a responder: One month (IBS symptoms) [4]: 25 (16) n (%) | Number of months a subject was a responder: Three months (Abdominal pain/discomfort) [4]: 62 (40) n (%) | Number of months a subject was a responder: Three months (Abnormal bowel habits) [4]: 61 (39) n (%) | Number of months a subject was a responder: Three months (IBS symptoms) [4]: 56 (36) n (%) | Number of months a subject was a responder: Two months (Abdominal pain/discomfort) [4]: 32 (21) n (%) | Number of months a subject was a responder: Two months (Abnormal bowel habits) [4]: 26 (17) n (%) | Number of months a subject was a responder: Two months (IBS symptoms) [4]: 31 (20) n (%) | Number of months a subject was a responder: Zero months (Abdominal pain/discomfort) [4]: 41 (26) n (%) | Number of months a subject was a responder: Zero months (Abnormal bowel habits) [4]: 44 (28) n (%) | Number of months a subject was a responder: Zero months (IBS symptoms) [4]: 43 (28) n (%) | Overall responder rate, adequate relief of IBS symptoms [4]: 82 (53) n (%) | Overall responder rate, adequate relief of abdominal pain/discomfort [4]: 90 (58) n (%) | Overall responder rate, adequate relief of abnormal bowel habits [4]: 82 (53) n (%) | Overall responder rate, IBS symptoms (Caucasians): 53% | Overall responder rate, abdominal pain/discomfort (Caucasians): 57% | Overall responder rate, abnormal bowel habits (Caucasians): 51% | Number of months a subject was a responder during the three-month treatment period: Abdominal pain/discomfort, One month [5]: 10 (14) n (%) | Number of months a subject was a responder during the three-month treatment period: Abdominal pain/discomfort, Three months [5]: 32 (44) n (%) | Number of months a subject was a responder during the three-month treatment period: Abdominal pain/discomfort, Two months [5]: 15 (21) n (%) | Number of months a subject was a responder during the three-month treatment period: Abdominal pain/discomfort, Zero months [5]: 15 (21) n (%) | Number of months a subject was a responder during the three-month treatment period: Abnormal bowel habits, One month [5]: 10 (14) n (%) | Number of months a subject was a responder during the three-month treatment period: Abnormal bowel habits, Three months [5]: 32 (44) n (%)
